Patent publication US10941152B2, “Pyrazole compounds as modulators of FSHR and uses thereof” (TOCOPHERX, INC., priority 2014, dated 2021)

Key:
FSHR = target: T1, FSHR (Homo sapiens, UniProt P23945); assay: EC50 of cyclic AMP production in CHO FSHR cells + EC20 FSH (Assay A); assay type: cell-based; details: cyclic AMP production in CHO FSHR cells + EC20 FSH (0.265 pM), HTRF
T1 construct: expressed in transfected cells; host or cells: CHO (Cho-FSHR-LUC-1-1-43)
T1 sequence (P23945 18-695): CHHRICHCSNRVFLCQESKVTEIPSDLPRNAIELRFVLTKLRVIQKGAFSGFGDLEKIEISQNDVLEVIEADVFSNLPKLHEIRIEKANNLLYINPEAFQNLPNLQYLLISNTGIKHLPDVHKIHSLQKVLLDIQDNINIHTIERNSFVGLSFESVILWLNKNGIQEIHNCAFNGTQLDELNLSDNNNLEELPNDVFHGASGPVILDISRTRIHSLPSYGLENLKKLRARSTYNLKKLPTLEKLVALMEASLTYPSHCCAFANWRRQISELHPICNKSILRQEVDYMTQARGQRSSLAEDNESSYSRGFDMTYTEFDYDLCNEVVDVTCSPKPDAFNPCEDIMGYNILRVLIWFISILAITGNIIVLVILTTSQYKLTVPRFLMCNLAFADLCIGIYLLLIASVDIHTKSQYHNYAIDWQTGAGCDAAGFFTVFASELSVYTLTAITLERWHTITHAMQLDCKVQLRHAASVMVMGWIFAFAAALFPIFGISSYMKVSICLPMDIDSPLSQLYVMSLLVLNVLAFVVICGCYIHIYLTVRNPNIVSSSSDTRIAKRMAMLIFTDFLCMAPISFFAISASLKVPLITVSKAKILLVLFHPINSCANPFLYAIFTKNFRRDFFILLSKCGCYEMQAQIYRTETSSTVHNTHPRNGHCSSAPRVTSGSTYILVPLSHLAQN
Outline: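 CHO cells expressing FSHR, stimulated 1 h at 37° C with compound plus EC20 FSH (0.265 pM final) and 200 μM IBMX. cAMP measured by HTRF (665/620 nm ratio) after 1 h at room temperature; effect expressed relative to maximum response of FSH standard.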

[1] = target: T2, follicle-stimulating hormone (FSH) receptor (Rattus norvegicus, UniProt P20395); assay: Rat granulosa EC50 FSH (Assay B); assay type: cell-based
T2 construct: endogenous in cells; host or cells: rat granulosa cells
T2 sequence (P20395 18-692): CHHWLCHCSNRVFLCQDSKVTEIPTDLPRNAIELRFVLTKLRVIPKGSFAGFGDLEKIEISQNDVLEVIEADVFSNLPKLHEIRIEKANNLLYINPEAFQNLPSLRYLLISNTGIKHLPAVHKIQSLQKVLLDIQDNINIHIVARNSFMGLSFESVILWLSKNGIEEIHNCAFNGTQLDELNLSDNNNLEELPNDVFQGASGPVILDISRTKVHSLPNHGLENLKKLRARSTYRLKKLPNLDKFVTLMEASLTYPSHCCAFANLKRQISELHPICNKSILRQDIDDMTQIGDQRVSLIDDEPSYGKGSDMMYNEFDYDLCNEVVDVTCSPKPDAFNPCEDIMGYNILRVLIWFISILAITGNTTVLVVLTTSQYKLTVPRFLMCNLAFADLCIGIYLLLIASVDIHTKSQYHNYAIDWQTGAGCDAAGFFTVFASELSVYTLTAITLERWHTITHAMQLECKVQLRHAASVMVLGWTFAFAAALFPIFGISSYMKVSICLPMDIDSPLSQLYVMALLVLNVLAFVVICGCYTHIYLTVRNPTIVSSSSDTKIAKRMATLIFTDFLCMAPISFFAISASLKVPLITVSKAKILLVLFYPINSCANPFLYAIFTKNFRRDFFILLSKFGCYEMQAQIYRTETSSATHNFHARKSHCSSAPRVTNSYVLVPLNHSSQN
Protocol: Example 25. Rat granulosa EC50 FSH (Assay B)
The assay was performed pursuant to the teaching of Yanofsky et al. (2006) Allosteric activation of the follicle-stimulating hormone (FSH) receptor by selective, nonpeptide agonists (JBC 281(19): 13226-13233, which is incorporated by reference in the disclosure of the invention).

`COC(=O)Cn1nc(C)c(-c2cc3c(cc2OC)OCc2c(C(=O)N(C)C(C)(C)C)nn(-c4cc(Cl)cc(Cl)c4)c2-3)c1C` [Compound 138, methyl 2-(4-(3-(tert-butyl(methyl)carbamoyl)-1-(3,5-dichlorophenyl)-7-methoxy-1,4-dihydrochromeno[4,3-c]pyrazol-8-yl)-3,5-dimethyl-1H-pyrazol-1-yl)acetate] gave an EC50 (FSHR) of less than 10 nM and an EC50 [1] of 101 to 500 nM.

With `COc1cc2c(cc1-c1ccn(C)n1)-c1c(c(C(=O)N(CCO)C(C)(C)C)nn1-c1ccsc1)CO2` [Compound 121, N-tert-butyl-N-(2-hydroxyethyl)-7-methoxy-8-(1-methyl-1H-pyrazol-3-yl)-1-(thiophen-3-yl)-1,4-dihydrochromeno[4,3-c]pyrazole-3-carboxamide] the EC50 (FSHR) was 10 to 100 nM and the EC50 [1] was greater than 500 nM.

For `COc1cc2c(cc1-c1cnn(CC(=O)O)c1)-c1c(c(C(=O)N3CCOCC3(C)C)nn1-c1cc(F)cc(F)c1)CO2` [Compound 88, 2-(4-(1-(3,5-difluorophenyl)-3-(3,3-dimethylmorpholine-4-carbonyl)-7-methoxy-1,4-dihydrochromeno[4,3-c]pyrazol-8-yl)-1H-pyrazol-1-yl)acetic acid], the EC50 (FSHR) was 10 to 100 nM and the EC50 [1] was 101 to 500 nM.

For `COc1cc2c(cc1-c1ccn(C)n1)-c1c(c(C(=O)N(CCO)C(C)(C)C)nn1-c1cc(Cl)cc(Cl)c1)CO2` [Compound 122, N-tert-butyl-1-(3,5-dichlorophenyl)-N-(2-hydroxyethyl)-7-methoxy-8-(1-methyl-1H-pyrazol-3-yl)-1,4-dihydrochromeno[4,3-c]pyrazole-3-carboxamide], the EC50 (FSHR) was 10 to 100 nM and the EC50 [1] was 101 to 500 nM.

In the case of `COc1cc2c(cc1-c1ccn(C)n1)-c1c(c(C(=O)N3CCOCC3(C)C)nn1-c1cc(F)cc(Cl)c1)CO2` [Compound 29, (1-(3-chloro-5-fluorophenyl)-7-methoxy-8-(1-methyl-1H-pyrazol-3-yl)-1,4-dihydrochromeno[4,3-c]pyrazol-3-yl)(3,3-dimethylmorpholino)methanone], the EC50 (FSHR) is reported as 10 to 100 nM and the EC50 [1] is reported as 101 to 500 nM.

For `COc1cc2c(cc1-c1cc(CO)ncc1F)-c1c(c(C(=O)N(C)C(C)(C)C)nn1-c1cc(F)cc(F)c1)CO2` [Compound 75, N-tert-butyl-1-(3,5-difluorophenyl)-8-(5-fluoro-2-(hydroxymethyl)pyridin-4-yl)-7-methoxy-N-methyl-1,4-dihydrochromeno[4,3-c]pyrazole-3-carboxamide], the EC50 (FSHR) was 10 to 100 nM and the EC50 [1] was 10 to 100 nM.

For `COc1cc2c(cc1-c1cccnc1C#N)-c1c(c(C(=O)N(C)C(C)(C)C)nn1-c1cc(Cl)cc(Cl)c1)CO2` [Compound 14, N-tert-butyl-8-(2-cyanopyridin-3-yl)-1-(3,5-dichlorophenyl)-7-methoxy-N-methyl-1,4-dihydrochromeno[4,3-c]pyrazole-3-carboxamide], the EC50 (FSHR) was less than 10 nM and the EC50 [1] was 10 to 100 nM.

In the case of `COc1cc(F)cc(-n2nc(C(=O)N(C)C(C)(C)C)c3c2-c2cc(-c4ccn(C)n4)c(OC)cc2OC3)c1` [Compound 52, N-tert-butyl-1-(3-fluoro-5-methoxyphenyl)-7-methoxy-N-methyl-8-(1-methyl-1H-pyrazol-3-yl)-1,4-dihydrochromeno[4,3-c]pyrazole-3-carboxamide], the EC50 (FSHR) is reported as 10 to 100 nM and the EC50 [1] is reported as 101 to 500 nM.

For `COc1cc2c(cc1-c1nccc(C(N)=O)n1)-c1c(c(C(=O)N(C)C(C)(C)C)nn1-c1cc(Cl)cc(Cl)c1)CO2` [Compound 111, N-tert-butyl-8-(4-carbamoylpyrimidin-2-yl)-1-(3,5-dichlorophenyl)-7-methoxy-N-methyl-1,4-dihydrochromeno[4,3-c]pyrazole-3-carboxamide], the EC50 (FSHR) was 10 to 100 nM and the EC50 [1] was 101 to 500 nM.

With `COc1cc2c(cc1-c1cncc(CO)c1)-c1c(c(C(=O)N(C)C(C)(C)C)nn1-c1cc(Cl)cc(Cl)c1)CO2` [Compound 23, N-tert-butyl-1-(3,5-dichlorophenyl)-8-(5-(hydroxymethyl)pyridin-3-yl)-7-methoxy-N-methyl-1,4-dihydrochromeno[4,3-c]pyrazole-3-carboxamide] the EC50 (FSHR) was less than 10 nM and the EC50 [1] was 10 to 100 nM.
